Assay results reported in patent US20230045421A1 (priority 2018, published 2023).

The compounds below were run on HBV rcDNA (assay: HepDE19 assay with bDNA quantitation of HBV rcDNA). Details: HepDE19 assay, inhibition of formation of rcDNA; read-out: DE-19bDNA EC50.
Format: cell-based, hepatitis B virus
In short: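 Compounds, top concentration 25 μM in 8-point duplicate series, were applied to Tet-free HepDE19 cultures for 7 days. Branched-DNA quantitation of HBV rcDNA against untreated wells gave EC50 and EC90 by 4-parameter fit. Viability (CC50) came from ATP luminescence on parallel plates incubated 4 days.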

Row | SMILES | EC50
1 | CCn1cc(C(C)N(C)C(=O)Nc2ccc(F)c(Cl)c2)c2ccccc2c1=O (single isomer, unassigned) [Compound 184, 3-(3-Chloro-4-fluorophenyl)-1-(1-(2-ethyl-1-oxo-1,2-dihydroisoquinolin-4-yl)ethyl)-1-methylurea] | 0.09 µM
2 | CNC(=O)CCN(C(=O)Nc1ccc(F)c(Cl)c1)C(C)c1c[nH]c(=O)c2ccccc12 (single isomer, unassigned) [Compound 118, 3-(3-(3-Chloro-4-fluorophenyl)-1-(1-(1-oxo-1,2-dihydroisoquinolin-4-yl)ethyl)ureido)-N-methylpropanamide] | 0.14 µM
3 | COCCN(C(=O)Nc1ccc(F)c(Cl)c1)C(C)c1cnc(OC)c2ccccc12 (single isomer, unassigned) [Compound 73, 3-(3-Chloro-4-fluorophenyl)-1-(2-methoxyethyl)-1-(1-(1-methoxyisoquinolin-4-yl)ethyl)urea] | 0.78 µM
4 | COCCCN(C(=O)Nc1ccc(F)c(Cl)c1)C(C)c1cnc(OC)c2ccccc12 (single isomer, unassigned) [Compound 82, 3-(3-Chloro-4-fluorophenyl)-1-(1-(1-methoxyisoquinolin-4-yl)ethyl)-1-(3-methoxypropyl)urea] | 0.32 µM
5 | CC(c1c[nH]c(=O)c2ccccc12)N(CCC(=O)N(C)C)C(=O)Nc1ccc(F)c(Cl)c1 (single isomer, unassigned) [Compound 106, 3-(3-(3-Chloro-4-fluorophenyl)-1-(1-(1-oxo-1,2-dihydroisoquinolin-4-yl)ethyl)ureido)-N,N-dimethylpropanamide] | 0.08 µM
6 | CC(c1c[nH]c(=O)c2ccccc12)N(CC1CCN(S(C)(=O)=O)CC1)C(=O)Nc1ccc(F)c(Cl)c1 (single isomer, unassigned) [Compound 203, 3-(3-Chloro-4-fluorophenyl)-1-((1-(methylsulfonyl)piperidin-4-yl)methyl)-1-(1-(1-oxo-1,2-dihydroisoquinolin-4-yl)ethyl)urea] | 10.5 µM
7 | COc1ncc(C(C)N(C(=O)Nc2ccc(F)c(Cl)c2)C2CC2)c2ccccc12 (single isomer, unassigned) [Compound 56, 3-(3-Chloro-4-fluorophenyl)-1-cyclopropyl-1-(1-(1-methoxyisoquinolin-4-yl)ethyl)urea] | 13 µM

Same assay, conditions: HepDE19 assay, inhibition of formation of relaxed circular DNA (rcDNA), bDNA quantitation; read-out: DE-19bDNA EC50

Row | SMILES | EC50
8 | CC(C)CN(C(=O)Nc1ccc(F)cc1)C(C)c1c[nH]c(=O)c2cc(F)c(F)cc12 (single isomer, unassigned) [Compound 288, 1-(1-(6,7-Difluoro-1-oxo-1,2-dihydroisoquinolin-4-yl)ethyl)-3-(4-fluorophenyl)-1-isobutylurea] | 0.004 µM
9 | CCN(C(=O)Nc1ccc(F)cc1)C(C)c1c[nH]c(=O)c2cc(F)c(F)cc12 (single isomer, unassigned) [Compound 403, 1-(1-(6,7-Difluoro-1-oxo-1,2-dihydroisoquinolin-4-yl)ethyl)-1-ethyl-3-(4-fluorophenyl)urea] | 0.028 µM
10 | CC(c1cn(C)c(=O)c2cc(F)c(F)cc12)N(C)C(=O)Nc1ccc(F)c(Cl)c1 (single isomer, unassigned) [Compound 341, 3-(3-Chloro-4-fluorophenyl)-1-(1-(6,7-difluoro-2-methyl-1-oxo-1,2-dihydroisoquinolin-4-yl)ethyl)-1-methylurea] | 0.011 µM
11 | CC(c1c[nH]c(=O)c2c(F)cccc12)N(CCS(N)(=O)=O)C(=O)Nc1ccc(F)c(Cl)c1 (single isomer, unassigned) [Compound 397, 2-(3-(3-Chloro-4-fluorophenyl)-1-(1-(8-fluoro-1-oxo-1,2-dihydroisoquinolin-4-yl)ethyl)ureido) ethane-1-sulfonamide] | 0.1 µM
12 | CC(c1c[nH]c(=O)c2c(F)c(F)ccc12)N(C)C(=O)Nc1ccc(F)c(C(F)F)c1 (single isomer, unassigned) [Compound 503, 1-(1-(7,8-Difluoro-1-oxo-1,2-dihydroisoquinolin-4-yl)ethyl)-3-(3-(difluoromethyl)-4-fluorophenyl)-1-methylurea] | 0.86 µM
13 | CC(c1c[nH]c(=O)c2c(F)c(F)ccc12)N(CCS(N)(=O)=O)C(=O)Nc1ccc(F)cc1 (single isomer, unassigned) [Compound 394, 2-(1-(1-(7,8-Difluoro-1-oxo-1,2-dihydroisoquinolin-4-yl)ethyl)-3-(4-fluorophenyl)ureido)ethane-1-sulfonamide] | 10 µM
14 | CC(c1c[nH]c(=O)c2ccc(F)cc12)N(CC(CO)CO)C(=O)Nc1ccc(F)c(Cl)c1 (single isomer, unassigned) [Compound 296, 3-(3-Chloro-4-fluorophenyl)-1-(1-(6-fluoro-1-oxo-1,2-dihydroisoquinolin-4-yl)ethyl)-1-(3-hydroxy-2-(hydroxymethyl)propyl)urea] | 0.04 µM
15 | CC(c1cnc(C(=O)N(C)C)c2ccccc12)N(C)C(=O)Nc1ccc(F)c(Cl)c1 (single isomer, unassigned) [Compound 318, 4-(1-(3-(3-Chloro-4-fluorophenyl)-1-methylureido)ethyl)-N,N-dimethylisoquinoline-1-carboxamide] | 24 µM
16 | CC(c1c[nH]c(=O)c2cc(F)c(F)cc12)N(CCS(N)(=O)=O)C(=O)Nc1ccc(F)c(Cl)c1 (single isomer, unassigned) [Compound 386, 2-(3-(3-Chloro-4-fluorophenyl)-1-(1-(6,7-difluoro-1-oxo-1,2-dihydroisoquinolin-4-yl)ethyl)ureido) ethane-1-sulfonamide] | 0.011 µM
17 | CC(c1c[nH]c(=O)c2cc(F)c(F)cc12)N(C)C(=O)Nc1ccc(F)c(C#N)c1 (single isomer, unassigned) [Compound 428, 3-(3-Cyano-4-fluorophenyl)-1-(1-(6,7-difluoro-1-oxo-1,2-dihydroisoquinolin-4-yl)ethyl)-1-methylurea] | 1.6 µM
18 | CC(c1c[nH]c(=O)c2cc(F)c(F)cc12)N(C)C(=O)Nc1ccc(F)cc1 (single isomer, unassigned) [Compound 286, 1-(1-(6,7-Difluoro-1-oxo-1,2-dihydroisoquinolin-4-yl)ethyl)-3-(4-fluorophenyl)-1-methylurea] | 0.02 µM
19 | CC(c1c[nH]c(=O)c2cc(F)c(F)cc12)N(CCCO)C(=O)Nc1ccc(F)cc1 (single isomer, unassigned) [Compound 291, 1-(1-(6,7-Difluoro-1-oxo-1,2-dihydroisoquinolin-4-yl)ethyl)-3-(4-fluorophenyl)-1-(3-hydroxypropyl) urea] | 4.6 µM

Same assay, conditions: Hepatitis B virus, HepDE19, HepDE19 assay, inhibition of formation of rcDNA; read-out: DE-19bDNA EC50

Row | SMILES | EC50
20 | CCCN(C(=O)Nc1ccc(F)c(Cl)c1)[C@H](C)c1c[nH]c(=O)c2ccccc12 [Compound 35, (R)-3-(3-Chloro-4-fluorophenyl)-1-(1-(1-oxo-1,2-dihydroisoquinolin-4-yl)ethyl)-1-propylurea] | 0.01 µM
21 | CC(c1c[nH]c(=O)c2ccccc12)N(CC1CCOC1)C(=O)Nc1ccc(F)c(Cl)c1 (stereo not drawn) [Compound 165] | 1.4 µM
22 | CC(c1c[nH]c(=O)c2ncccc12)N(C)C(=O)Nc1ccc(F)c(Cl)c1 (stereo not drawn) [Compound 153, 3-(3-chloro-4-fluorophenyl)-1-methyl-1-(1-(8-oxo-7,8-dihydro-1,7-naphthyridin-5-yl)ethyl)urea] | 0.87 µM
23 | O=C(Nc1ccc(F)c(Cl)c1)N(CCO)Cc1c[nH]c(=O)c2ccccc12 [Compound 27, 3-(3-Chloro-4-fluorophenyl)-1-(2-hydroxyethyl)-1-((1-oxo-1,2-dihydroisoquinolin-4-yl)methyl)urea] | 1 µM
24 | CCN(Cc1cnc(OC)c2ccccc12)C(=O)Nc1ccc(F)c(Cl)c1 [Compound 15, 3-(3-Chloro-4-fluorophenyl)-1-ethyl-1-((1-methoxyisoquinolin-4-yl)methyl)urea] | 1.2 µM
25 | CC(c1c[nH]c(=O)c2cnccc12)N(C)C(=O)Nc1ccc(F)c(Cl)c1 (stereo not drawn) [Compound 111, 3-(3-Chloro-4-fluorophenyl)-1-methyl-1-(1-(1-oxo-1,2-dihydro-2,7-naphthyridin-4-yl)ethyl)urea] | 0.25 µM
26 | CC(c1c[nH]c(=O)c2ccccc12)N(CC1COC(C)(C)OC1)C(=O)Nc1ccc(F)cc1 (single isomer, unassigned) [Compound 274, 3-(4-Fluorophenyl)-1-((2,2-dimethyl-1,3-dioxan-5-yl)methyl)-1-(1-(1-oxo-1,2-dihydroisoquinolin-4-yl)ethyl)urea] | 1.8 µM

Same assay, conditions: Hepatitis B virus, HepDE19, read-out: DE-19bDNA EC50 (μM), HepDE19 assay, inhibition of formation of rcDNA

Row | SMILES | EC50
27 | O=C(Nc1ccc(F)c(Cl)c1)N(Cc1c[nH]c(=O)c2ccccc12)CC1CC1 [Compound 53, 3-(3-Chloro-4-fluorophenyl)-1-(cyclopropylmethyl)-1-((1-oxo-1,2-dihydroisoquinolin-4-yl)methyl)urea] | 0.16 µM
28 | CCN(C(=O)Nc1ccc(F)c(Cl)c1)C(c1c[nH]c(=O)c2ccccc12)C(C)C (single isomer, unassigned) [Compound 54, 3-(3-Chloro-4-fluorophenyl)-1-ethyl-1-(2-methyl-1-(1-oxo-1,2-dihydroisoquinolin-4-yl)propyl)urea] | 20 µM

Same assay, conditions: Hepatitis B virus, HepDE19, read-out: DE-19bDNA EC50 (μM), HepDE19 assay, inhibition of formation of relaxed circular DNA (rcDNA), bDNA quantitation

Row | SMILES | EC50
29 | CC(NC(=O)Nc1ccc(F)c(Cl)c1)c1c[nH]c(=O)c2c(F)c(F)ccc12 (single isomer, unassigned) [Compound 500, 1-(3-Chloro-4-fluorophenyl)-3-(1-(7,8-difluoro-1-oxo-1,2-dihydroisoquinolin-4-yl)ethyl)urea] | 3 µM

Same assay, conditions: read-out: DE-19bDNA EC50; HepDE19 assay, inhibition of formation of rcDNA

Row | SMILES | EC50
30 | CC(c1c[nH]c(=O)c2ccccc12)N(CCCO)C(=O)Nc1ccc(F)c(Cl)c1 (single isomer, unassigned) [Compound 130, 3-(3-Chloro-4-fluorophenyl)-1-(3-hydroxypropyl)-1-(1-(1-oxo-1,2-dihydroisoquinolin-4-yl)ethyl)urea] | 7.9 µM
